The values that follow come from paper PMC4016962 (Molecules, 2014).

As usually defined, the Ki is a dissociation constant, usually derived from enzyme kinetics or from competition with a known ligand. Higher therefore signals lower affinity.

T1 sequence (Q81R22 1-162): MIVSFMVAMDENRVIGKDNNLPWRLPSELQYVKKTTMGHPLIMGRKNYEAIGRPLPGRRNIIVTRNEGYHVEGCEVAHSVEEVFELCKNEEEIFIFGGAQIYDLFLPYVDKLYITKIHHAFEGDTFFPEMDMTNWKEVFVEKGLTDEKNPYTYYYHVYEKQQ

This assay has as its target T1, B. anthracis DHFR (Bacillus anthracis, UniProt Q81R22).
T1 construct: gene dfrA
Nature of the assay: biochemical.
With `COc1cc(Cc2cnc(N)nc2N)cc(/C=C/C(=O)N2N=Cc3ccccc3C2c2ccccn2)c1OC` (racemic) [6h, (±)-(E)-3-(5-((2,4-Diaminopyrimidin-5-yl)methyl)-2,3-dimethoxyphenyl)-1-(1-(pyridin-2-yl)phthalazin-2(1H)-yl)prop-2-en-1-one], the inhibition constant (Ki) was found to be 9 ± 0.2 nM.

In turn, `COc1cc(Cc2cnc(N)nc2N)cc(/C=C/C(=O)N2N=Cc3ccccc3C2C)c1OC` (racemic) [6a, (±)-(E)-3-(5-((2,4-Diaminopyrimidin-5-yl)methyl)-2,3-dimethoxyphenyl)-1-(1-methylphthalazin-2(1H)-yl)prop-2-en-1-one] displayed an inhibition constant (Ki) of 8.8 ± 0.2 nM. Under `COc1cc(Cc2cnc(N)nc2N)cc(/C=C/C(=O)N2N=Cc3ccccc3C2c2cccs2)c1OC` (racemic) [6g, (±)-(E)-3-(5-((2,4-Diaminopyrimidin-5-yl)methyl)-2,3-dimethoxyphenyl)-1-(1-(thiophen-2-yl)-phthalazin-2(1H)-yl)prop-2-en-1-one] stands 8.4 ± 0.2 nM. In turn, `CCOC(=O)CC1c2ccccc2C=NN1C(=O)/C=C/c1cc(Cc2cnc(N)nc2N)cc(OC)c1OC` (racemic) [11b, Ethyl (±)-(E)-2-(2-(3-(5-((2,4-Diaminopyrimidin-5-yl)methyl)-(2,3-dimethoxyphenyl)acryloyl)-phthal-azin-2(1H)-yl)acetate] had a Ki of 24.9 ± 0.3 nM. For `CCC1c2ccccc2C=NN1C(=O)/C=C/c1cc(Cc2cnc(N)nc2N)cc(OC)c1OC` (racemic) [6b, (±)-(E)-3-(5-((2,4-Diaminopyrimidin-5-yl)methyl)-2,3-dimethoxyphenyl)-1-(1-ethylphthalazin-2(1H)-yl)prop-2-en-1-one], the inhibition constant (Ki) turned out to be 6.8 ± 0.2 nM. Under `COc1cc(Cc2cnc(N)nc2N)cc(/C=C/C(=O)N2N=Cc3ccccc3C2C2CC2)c1OC` (racemic) [6e, (±)-(E)-1-(1-Cyclopropylphthalazin-2(1H)-yl)-3-(5-((2,4-diaminopyrimidin-5-yl)methyl)-2,3-dimethoxyphenyl)prop-2-en-1-one] stands 4.9 ± 0.2 nM; under `COc1cc(Cc2cnc(N)nc2N)cc(/C=C/C(=O)N2N=Cc3ccccc3C2CC(=O)OC(C)(C)C)c1OC` (racemic) [11a, t-Butyl (±)-(E)-2-(2-(3-(5-((2,4-Diaminopyrimidin-5-yl)methyl)-2,3-dimethoxyphenyl)acryloyl)-phthal-azin-2(1H)-yl)acetate], 59 ± 0.9 nM; under `COC(=O)CC1c2ccccc2C=NN1C(=O)/C=C/c1cc(Cc2cnc(N)nc2N)cc(OC)c1OC` (racemic) [11c, Methyl (±)-(E)-2-(2-(3-(5-((2,4-Diaminopyrimidin-5-yl)methyl)-2,3-dimethoxyphenyl)acryloyl)-phthal-azin-2(1H)-yl)acetate], 20 ± 0.3 nM. Regarding `COc1cc(Cc2cnc(N)nc2N)cc(/C=C/C(=O)N2N=Cc3ccccc3C2c2ccco2)c1OC` (racemic) [6f, (±)-(E)-3-(5-((2,4-Diaminopyrimidin-5-yl)methyl)-2,3-dimethoxyphenyl)-1-(1-(furan-2-yl)phthalazin-2(1H)-yl)prop-2-en-1-one], the Ki came out at 5.9 ± 0.2 nM. Regarding `CCC(C)C1c2ccccc2C=NN1C(=O)/C=C/c1cc(Cc2cnc(N)nc2N)cc(OC)c1OC` (racemic) [6d, (±)-(E)-1-(1-s-Butylphthalazin-2(1H)-yl)-3-(5-((2,4-diaminopyrimidin-5-yl)methyl)-2,3-dimethoxyphenyl)prop-2-en-1-one], the inhibitory constant (Ki) stood at 10.4 ± 0.2 nM. In turn, `CCCCC1c2ccccc2C=NN1C(=O)/C=C/c1cc(Cc2cnc(N)nc2N)cc(OC)c1OC` (racemic) [6c, (±)-(E)-1-(1-n-Butylphthalazin-2(1H)-yl)-3-(5-((2,4-diaminopyrimidin-5-yl)methyl)-2,3-dimethoxyphenyl)prop-2-en-1-one] had a Ki of 7.9 ± 0.2 nM.
